In test [1] the test system is Escherichia coli. Put plainly: Antimicrobial activity against Escherichia coli BW25113 incubated for 16 to 18 hrs by macrodilution method. In kind it is functional.
In test [2] the test system is Escherichia coli. Put plainly: Antimicrobial activity against Escherichia coli BW25113 expressing delta-tolC gene incubated for 16 to 18 hrs by macrodilution method. In kind it is functional.
The next test has as its system Edwardsiella tarda. Put plainly: Antimicrobial activity against Edwardsiella tarda incubated for 16 to 18 hrs by macrodilution method. In kind it is functional.
Test [3] concerns Staphylococcus aureus. Put plainly: Antimicrobial activity against Staphylococcus aureus Newman incubated for 16 to 18 hrs by macrodilution method. In kind it is functional.
A further test has as its system Salmonella typhimurium. Put plainly: Antimicrobial activity against Salmonella typhimurium incubated for 16 to 18 hrs by macrodilution method. The settings on record: Salmonella enterica. In kind it is functional, Salmonella enterica subsp. enterica serovar Typhimurium.
For the next test, the system named is Shigella boydii. Put plainly: Antimicrobial activity against Shigella boydii incubated for 16 to 18 hrs by macrodilution method. In kind it is functional.
Another test concerns Vibrio cholerae. Put plainly: Antimicrobial activity against Vibrio cholerae incubated for 16 to 18 hrs by macrodilution method. In kind it is functional.
The subject of a further test is Morganella morganii. Put plainly: Antimicrobial activity against Morganella morganii incubated for 16 to 18 hrs by macrodilution method. In kind it is functional.
The subject of a further test is Klebsiella pneumoniae. Put plainly: Antimicrobial activity against Klebsiella pneumoniae incubated for 16 to 18 hrs by macrodilution method. In kind it is functional.
A further test has as its system Klebsiella aerogenes. Put plainly: Antimicrobial activity against Enterobacter aerogenes incubated for 16 to 18 hrs by macrodilution method. In kind it is functional.
In another test the test system is Acinetobacter baumannii. Put plainly: Antimicrobial activity against Acinetobacter baumannii incubated for 16 to 18 hrs by macrodilution method. In kind it is functional.
The subject of test [4] is Escherichia coli. Put plainly: Antimicrobial activity against Escherichia coli MG1655 incubated at 37 degC overnight for 18 hrs. In kind it is functional. As to conditions: MG1655, 18 h.
Test [5] deals with Staphylococcus aureus. Put plainly: Antimicrobial activity against Staphylococcus aureus incubated at 37 degC overnight for 18 hrs. In kind it is functional.
In test [6] the test system is Burkholderia pseudomallei. Put plainly: Antimicrobial activity against Burkholderia pseudomallei incubated for 16 to 18 hrs by macrodilution method. In kind it is functional.
Another test has as its system Bacillus anthracis. Put plainly: Antimicrobial activity against Bacillus anthracis incubated for 16 to 18 hrs by macrodilution method. In kind it is functional.
In a further test the test system is Yersinia pestis. Put plainly: Antimicrobial activity against Yersinia pestis incubated for 16 to 18 hrs by macrodilution method. In kind it is functional.
A further test concerns Burkholderia mallei. Put plainly: Antimicrobial activity against Burkholderia mallei incubated for 16 to 18 hrs by macrodilution method. In kind it is functional.
Another test deals with Francisella tularensis. Put plainly: Antimicrobial activity against Francisella tularensis incubated for 16 to 18 hrs by macrodilution method. In kind it is functional.
The subject of test [7] is Escherichia coli. Put plainly: Potentiation of novobiocin-induced antimicrobial effect against Escherichia coli MG1655 at 2.5 to 80 uM incubated at 37 degC overnight for 18 hrs in presence of novobiocin by checkerboard assay. In kind it is functional, organism-based.
Test [8] concerns Escherichia coli. Put plainly: Synergistic potentiation of kanamycin-induced antimicrobial effect against Escherichia coli MG1655 at 2.5 to 80 uM incubated at 37 degC overnight for 18 hrs in presence of >4 uM kanamycin by checkerboard assay. In kind it is functional, organism-based.
Test [9] concerns Staphylococcus aureus. Put plainly: Synergistic potentiation of ampicillin-induced antimicrobial effect against Staphylococcus aureus at 2.5 to 80 uM incubated at 37 degC overnight for 18 hrs in presence of >4 uM ampicillin by checkerboard assay. In kind it is functional, organism-based.
Test [10] concerns Escherichia coli. Put plainly: Antimicrobial activity against Escherichia coli MG1655 at 2.5 to 80 uM incubated at 37 degC overnight for 18 hrs in presence of ampicillin by checkerboard assay. In kind it is functional, organism-based.
The test system of test [11] is Escherichia coli. Put plainly: Synergistic potentiation of ampicillin-induced antimicrobial effect against Escherichia coli MG1655 at 2.5 to 80 uM incubated at 37 degC overnight for 18 hrs in presence of >4 uM ampicillin by checkerboard assay. In kind it is functional, organism-based.
Test [12] concerns Staphylococcus aureus. Put plainly: Potentiation of kanamycin-induced antimicrobial effect against Staphylococcus aureus at 2.5 to 80 uM incubated at 37 degC overnight for 18 hrs in presence of kanamycin by checkerboard assay. In kind it is functional, organism-based.

In brackets after ≈: the same amount, converted by molar mass. Activity calls are given as the source filed them. The calls are words filed in the database; no cut-off is given here.

For `CC(C)CCNCCCn1c2ccc(Cl)cc2c2cc(Cl)ccc21`, the MIC (in general, the least concentration at which growth counts as inhibited) against Escherichia coli [1] stood at 80 µM (≈ 29.1 µg/mL); in the test with Escherichia coli [2], 5 µM (≈ 1.82 µg/mL).

On to `CCC(CC)CNCC(O)Cn1c2ccc(Cl)cc2c2cc(Cl)ccc21` (stereo not drawn), for which the MIC came to 12.5 µM (≈ 4.92 µg/mL) against Edwardsiella tarda; 80 µM (≈ 31.5 µg/mL) in the test with Escherichia coli [1]; 5 µM (≈ 1.97 µg/mL) with Staphylococcus aureus [3]; 200 µM (≈ 78.7 µg/mL) against Salmonella typhimurium; 25 µM (≈ 9.83 µg/mL) with Shigella boydii; 6.25 µM (≈ 2.46 µg/mL) in the test on Vibrio cholerae. Also, the minimum inhibitory concentration (MIC) against Escherichia coli [2] was 2.5 µM (≈ 0.983 µg/mL); against Morganella morganii, over 200 µM; with Klebsiella pneumoniae it was over 200 µM; with Klebsiella aerogenes, over 200 µM; against Acinetobacter baumannii, 25 µM (≈ 9.83 µg/mL).

For the molecule `OCC(CO)(CO)NCC(O)Cn1c2ccc(Cl)cc2c2cc(Cl)ccc21` (racemic), the minimal inhibitory concentration (MIC) is 100 µM (≈ 41.3 µg/mL) with Edwardsiella tarda; 80 µM (≈ 33.1 µg/mL) against Escherichia coli [1]; 40 µM (≈ 16.5 µg/mL) in the test with Staphylococcus aureus [3]; 100 µM (≈ 41.3 µg/mL) in the test on Salmonella typhimurium; 100 µM (≈ 41.3 µg/mL) in the test on Shigella boydii; 50 µM (≈ 20.7 µg/mL) against Vibrio cholerae. For the same molecule, the MIC with Escherichia coli [2] came to 20 µM (≈ 8.27 µg/mL); in the test with Morganella morganii, 200 µM (≈ 82.7 µg/mL); against Klebsiella pneumoniae, 200 µM (≈ 82.7 µg/mL); in the test with Klebsiella aerogenes it was 200 µM (≈ 82.7 µg/mL); in the test on Acinetobacter baumannii, 200 µM (≈ 82.7 µg/mL).

For `OCC(CO)(CO)NCC(O)Cn1ccc2cc(Cl)ccc21` (stereo not drawn), the values for the MIC against Escherichia coli [1] and in the test with Escherichia coli [2] were over 320 µM and 320 µM (≈ 105 µg/mL), respectively.

For `CO[C@@H]1[C@@H](OC(N)=O)[C@@H](O)[C@H](Oc2ccc3c(O)c(NC(=O)c4ccc(O)c(CC=C(C)C)c4)c(=O)oc3c2C)OC1(C)C` [NOVOBIOCIN], the MIC is 320 µM (≈ 196 µg/mL) against Escherichia coli [4] and 1.2 µM (≈ 0.735 µg/mL) against Escherichia coli [2].

Take `NC[C@H]1O[C@H](O[C@H]2[C@H](O)[C@@H](O[C@H]3O[C@H](CO)[C@@H](O)[C@H](N)[C@H]3O)[C@H](N)C[C@@H]2N)[C@H](O)[C@@H](O)[C@@H]1O` [KANAMYCIN]: the minimum inhibitory concentration (MIC) is 10 µM (≈ 4.85 µg/mL) in the test on Escherichia coli [4] and 2.5 µM (≈ 1.21 µg/mL) against Staphylococcus aureus [5].

Take `OCC(CO)(CO)NCC(O)Cn1c2ccccc2c2ccccc21` (stereo not drawn): the minimum inhibitory concentration (MIC) with Escherichia coli [1] is over 320 µM; against Escherichia coli [2] it was over 80 µM.

On to `CCC(CO)(CO)NCC(O)Cn1c2ccc(Cl)cc2c2cc(Cl)ccc21` (stereo not drawn), for which the figures for the MIC in the test on Escherichia coli [1] and in the test with Escherichia coli [2] were 160 µM (≈ 65.8 µg/mL) and 20 µM (≈ 8.23 µg/mL), respectively.

Take `CCCCCNCC(O)Cn1c2ccc(Cl)cc2c2cc(Cl)ccc21` (stereo not drawn): the results for the MIC in the test with Escherichia coli [1] and against Escherichia coli [2] were 80 µM (≈ 30.3 µg/mL) and 5 µM (≈ 1.9 µg/mL), respectively.

Regarding `OC(CNC1CCCCC1)Cn1c2ccc(Cl)cc2c2cc(Cl)ccc21` (stereo not drawn), the MIC was 50 µM (≈ 19.6 µg/mL) in the test on Edwardsiella tarda; 40 µM (≈ 15.7 µg/mL) against Escherichia coli [1]; 5 µM (≈ 1.96 µg/mL) in the test with Staphylococcus aureus [3]; 100 µM (≈ 39.1 µg/mL) against Salmonella typhimurium; 50 µM (≈ 19.6 µg/mL) against Shigella boydii; 6.25 µM (≈ 2.45 µg/mL) against Vibrio cholerae. Moreover, the MIC was 2.5 µM (≈ 0.978 µg/mL) against Escherichia coli [2]; over 200 µM with Morganella morganii; over 200 µM against Klebsiella pneumoniae; over 200 µM with Klebsiella aerogenes; 25 µM (≈ 9.78 µg/mL) against Acinetobacter baumannii. For the same molecule, the MIC50 (commonly an inhibitory concentration at the 50% level, which refers to growth in some studies and to a panel of isolates in others) in [6] is 164 µM (≈ 64.2 µg/mL); in the test with Bacillus anthracis, 5 µM (≈ 1.96 µg/mL); against Yersinia pestis it was 41 µM (≈ 16 µg/mL); in the test on Burkholderia mallei, 21 µM (≈ 8.22 µg/mL); with Francisella tularensis it was 2.5 µM (≈ 0.978 µg/mL). Moreover, the MIC90 (in general, the lowest concentration that inhibits either 90% of growth or 90% of the strains tested, depending on the study) in test [6] is at least 164 µM; against Bacillus anthracis it was 10 µM (≈ 3.91 µg/mL); in the test on Yersinia pestis, 82 µM (≈ 32.1 µg/mL); in the test on Burkholderia mallei, 82 µM (≈ 32.1 µg/mL); in the test on Francisella tularensis, 10 µM (≈ 3.91 µg/mL).

Take `OCC(CO)NCC(O)Cn1c2ccc(Cl)cc2c2cc(Cl)ccc21` (stereo not drawn): the MIC with Escherichia coli [1] was 40 µM (≈ 15.3 µg/mL); against Escherichia coli [2], 20 µM (≈ 7.67 µg/mL).

Regarding `CC(C)CCNCC(O)Cn1c2ccc(Cl)cc2c2cc(Cl)ccc21` (stereo not drawn), the MIC was found to be 25 µM (≈ 9.48 µg/mL) in the test with Edwardsiella tarda; 40 µM (≈ 15.2 µg/mL) in the test on Escherichia coli [1]; 5 µM (≈ 1.9 µg/mL) against Staphylococcus aureus [3]; 50 µM (≈ 19 µg/mL) with Salmonella typhimurium; 25 µM (≈ 9.48 µg/mL) with Shigella boydii; 6.25 µM (≈ 2.37 µg/mL) in the test on Vibrio cholerae. Besides, the MIC against Escherichia coli [2] amounted to 2.5 µM (≈ 0.948 µg/mL); against Morganella morganii, 50 µM (≈ 19 µg/mL); against Klebsiella pneumoniae, 50 µM (≈ 19 µg/mL); against Klebsiella aerogenes, 50 µM (≈ 19 µg/mL); against Acinetobacter baumannii it was 12.5 µM (≈ 4.74 µg/mL). Further, the MIC50 in test [6] turned out to be 170 µM (≈ 64.5 µg/mL); in the test on Bacillus anthracis, 5 µM (≈ 1.9 µg/mL); against Yersinia pestis, 21 µM (≈ 7.97 µg/mL); in the test with Burkholderia mallei, 21 µM (≈ 7.97 µg/mL); against Francisella tularensis, 5 µM (≈ 1.9 µg/mL). Also, the MIC90 in [6] was at least 170 µM; with Bacillus anthracis, 5 µM (≈ 1.9 µg/mL); with Yersinia pestis, 42 µM (≈ 15.9 µg/mL); against Burkholderia mallei, 42 µM (≈ 15.9 µg/mL); against Francisella tularensis, 10 µM (≈ 3.79 µg/mL). Besides, the result with Escherichia coli [7] and in the test on Staphylococcus aureus [12] was inactive. Besides, the outcome in the test with Escherichia coli [8], in the test on Staphylococcus aureus [9], in the test on Escherichia coli [10] and with Escherichia coli [11] was Active.

Consider `CC(CO)(CO)NCC(O)Cn1c2ccc(Cl)cc2c2cc(Cl)ccc21` (stereo not drawn), for which the minimal inhibitory concentration (MIC) against Escherichia coli [1] stood at 80 µM (≈ 31.8 µg/mL); in the test with Escherichia coli [2], 40 µM (≈ 15.9 µg/mL).

Regarding `CC(C)(C)NCC(O)Cn1c2ccc(Cl)cc2c2cc(Cl)ccc21` (stereo not drawn), the minimum inhibitory concentration (MIC) against Escherichia coli [1] was 160 µM (≈ 58.4 µg/mL); with Escherichia coli [2], 40 µM (≈ 14.6 µg/mL).

As to `CCC(CC)NCC(O)Cn1c2ccc(Cl)cc2c2cc(Cl)ccc21` (stereo not drawn), the values for the minimum inhibitory concentration (MIC) in the test on Escherichia coli [1] and in the test with Escherichia coli [2] were 80 µM (≈ 30.3 µg/mL) and 5 µM (≈ 1.9 µg/mL), respectively.

For the molecule `OCC(CO)(CO)NC[C@@H](O)Cn1c2ccc(Cl)cc2c2cc(Cl)ccc21`, the MIC stood at 80 µM (≈ 33.1 µg/mL) with Escherichia coli [1] and 20 µM (≈ 8.27 µg/mL) against Escherichia coli [2].

In the case of `CC1(C)S[C@@H]2[C@H](NC(=O)[C@H](N)c3ccccc3)C(=O)N2[C@H]1C(=O)O` [AMPICILLIN], the values for the MIC against Escherichia coli [4] and against Staphylococcus aureus [5] were 10 µM (≈ 3.49 µg/mL) and 1 µM (≈ 0.349 µg/mL), respectively.

For `OCC(CO)(CO)NC[C@H](O)Cn1c2ccc(Cl)cc2c2cc(Cl)ccc21`, the results for the minimal inhibitory concentration (MIC) with Escherichia coli [1] and in the test on Escherichia coli [2] were 80 µM (≈ 33.1 µg/mL) and 20 µM (≈ 8.27 µg/mL), respectively. For the same molecule, the MIC50 is at least 170 µM in test [6]; 42 µM (≈ 17.4 µg/mL) against Bacillus anthracis; at least 170 µM with Yersinia pestis; at least 170 µM against Burkholderia mallei; 85 µM (≈ 35.1 µg/mL) against Francisella tularensis. For the same molecule, the MIC90 in test [6] was at least 170 µM; with Bacillus anthracis, 42 µM (≈ 17.4 µg/mL); in the test on Yersinia pestis it was at least 170 µM; against Burkholderia mallei, at least 170 µM; in the test with Francisella tularensis it was 170 µM (≈ 70.3 µg/mL).
